# Measurements as given in patent US10830762B2, “Compositions and methods for inducing conformational changes in cereblon and other E3 ubiquitin ligases” (Celgene Corporation, priority 2015, dated 2020).
# Key:
# [1] = tested on: TMD8 (ABC) or Karpas 422 (GCB) cells; test: 3H-thymidine incorporation proliferation assay with lenalidomide co-treatment; type: cell-based
# [2] = target: T1, CRBN (Homo sapiens, UniProt Q96SW2, E377V); test: Thalidomide analog bead assay with extracts of DF15R cells re-expressing wild type or mutant CRBN; type: binding; conditions: CRBN E377V mutant; preincubation of cell extracts with free compound
# T1 construct: re-express full length wild type (CRBN^WT); expressed in transfected cells; host or cells: DF15R (CRBN-deficient myeloma) cells, lentiviral transduction, cell extract
# Procedure: (§1) DF15, DF15R or DF15R derived cell line extracts were prepared in NP 40 lysis buffer (0.5% NP40, 50 mM Tris HCl (pH 8.0), 150 mM NaCl, 0.5 mM DTT, 0.25 mM PMSF, 1× protease inhibitor mix (Roche, Indianapolis, Ind.) at approximately 2×10^8 cells per ml […]. Cell debris and nucleic acids were cleared by centrifugation (14,000 rpm 30 min 4° C.). In competition experiments 0.5 ml (3-5 mg protein) aliquots of the resulting extracts were preincubated (15 min room temp.) with 5 μl DMSO (control) or 5 μl compound at varying concentrations in DMSO. Thalidomide analog-coupled beads (0.3-0.5 mg) were added to protein extracts and samples rotated (2 hours, 4° C.). Beads were washed three times with 0.5 ml NP40 buffer, and then bound proteins were eluted with SDS-PAGE sample buffer.
# (§2) Cell extracts from these lines were then used to assay the ability of CRBN to bind immunomodulatory agent compound.
# (§3) Cell extracts from this line were used to assay the ability of CRBN^E377V to bind Immunomodulatory agent compound.
# [3] = target: CRBN (Homo sapiens, UniProt Q96SW2); test: as above; type: binding; parameters: re-express full length wild type (CRBN^WT); expressed in transfected cells; host or cells: DF15R (CRBN-deficient myeloma) cells, lentiviral transduction, cell extract; conditions: recombinant CRBN WT expressed in DF15R; preincubation of cell extracts with free compound
# Procedure: as §1, §2, §3
# [4] = target: MBP-IKZF1 (a.a. 140-168) / CRBN-DDB1 (Homo sapiens, UniProt Q13422+Q96SW2); conditions: 100 uM compound; IKZF1 domain with one predicted zinc finger
# [5] = tested on: human PBMCs; test: IL2 release co-stimulation in human PBMCs treated with anti-CD3; type: cell-based
# [6] = tested on: DF15R myeloma cells; test: Cell proliferation assay of DF15R cells re-expressing wild type or mutant CRBN treated with pomalidomide; type: cell-based
# Procedure: (A) Cell lines re-expressing full-length CRBN wild-type. W386A or W400A mutants were tested for the ability to bind immunomodulatory agent compounds. Assay was repeated at least three times. Representative Western blot of representative experiment is shown. (B) Cell proliferation assay of DF15 (sensitive). DF15R (resistant; CRBN^null), CRBNWT, CRBNW386A; CRBN400 cells treated with a dose response of pomalidomide. Assays were done in triplicate and error bars representative s.d. Data for each cell line was normalized to treatment with vehicle (DMSO). (C) Western blots of key downstream effectors of immunomodulatory agent resistance.
# (A) Cell lines re-expressing RFP or full length CRBN wild type or E377V mutant were tested for the ability of CRBN proteins to bind immunomodulatory agent compounds. Assay was repeated at least three times. Representative Western blot of representative experiment is shown. (B) Cell proliferation assay of DF15 (sensitive), DF15R (resistant; CRBN^null), CRBN^WT, CRBN^E377V cells treated with a dose response of pomalidomide. Assays were done in triplicate and error bars represent s.d. Data for each cell line was normalized to treatment with vehicle (DMSO).
# The antiproliferative effect of immunomodulatory agent compounds on myeloma cells is mediated through CRBN protein. […]
# [7] = tested on: mouse splenocytes; test: IL2 induction in mouse splenocytes / mouse PBMC treated with anti-CD3; type: cell-based
# Source text: Data are shown as mean±s.d. (B) Costimulation of IL2 release by anti-CD28 (squares) or pomalidomide (circles) in mouse PBMC treated with anti-CD3. Data are shown as mean±s.d.
# [8] = tested on: H929 and U266 multiple myeloma cell lines; test: Cell viability by flow cytometry in CRBN inducible shRNA knockdown cells; type: cell-based; conditions: CRBN inducible knockdown vs shControl; 5 day treatment
# Procedure: (A) An inducible shRNA construct targeting CRBN or a control construct was transduced into the multiple myeloma cell lines H929 and U266. Inducible shRNA expression (marked by turbo-RFP) was monitored by flow cytometry over a period of 1 to 9 days as indicated in the histograms (Top row). […] (B) CRBN protein expression was quantified by Western blotting. […] (D)-(F) After 9 days of shRNA inducible knock-down, cells were treated with increasing doses of pomalidomide and compound effect in cell viability was assayed by flow cytometry after 5 day treatment. […] Data are shown as mean of three independent experiments±s.d.
# Inducible shRNA constructs targeting CRBN or a control construct (Open Biosystems) were transduced using spinoculation methodology into the multiple myeloma cell lines H929 and U266. Stably transduced cells were selected with puromycin. Inducible shRNA expression (marked by RFP) was monitored by fluorescence microscopy and flow cytometry using 1 μg/mL doxycycline. CRBN protein expression was quantified by Western blotting. Cell proliferation and viability were assessed by 7AAD/flow cytometry assays.
structure (smiles),measurement,setting,value
"Cc1nc2cccc(N)c2c(=O)n1C1CCC(=O)NC1=O (stereo not drawn) [Compound A, 3-(5-amino-2-methyl-4-oxo-4H-quinazolin-3-yl)-piperidine-2,6-dione]",anti-proliferative effects on co-treatment with lenalidomide,"[1]; co-treatment with 10 μM lenalidomide, 3H-thymidine incorporation",blocks anti-proliferative effects
O=C1CCC(N2C(=O)c3ccccc3C2=O)C(=O)N1 (stereo not drawn) [thalidomide],competition for CRBN binding to thalidomide analog-beads,[2],competed
same,competition for CRBN binding to thalidomide analog-beads,[3],competed for binding to the beads
Nc1cccc2c1C(=O)N(C1CCC(=O)NC1=O)C2=O (stereo not drawn) [pomalidomide],pull down of CRBN-DDB1 by minimal IKZF1 domain,[4],sufficient to pull down CRBN-DDB1
same,IL2 release,[5],Co-stimulation of IL2 release
same,antiproliferative sensitivity,[6]; DF15R re-expressing CRBN E377V,unable to rescue sensitivity
same,antiproliferative effect,[6]; DF15R re-expressing CRBN WT,regained antiproliferative effect
same,IL-2 induction,[7],resistant to the IL-2 inducing effects
same,competition for CRBN binding to thalidomide analog-beads,[2],competed
same,competition for CRBN binding to thalidomide analog-beads,[3],competed for binding to the beads
same,anti-proliferative effects in CRBN knockdown cells,[8],reduced anti-proliferative effects
"Nc1cccc2c1CN(C1CCC(=O)NC1=O)C2=O (stereo not drawn) [lenalidomide, 3-(4-amino-1-oxo-1,3-dihydro-isoindol-2-yl)-piperidine-2,6-dione, reference compound]",competition for CRBN,[1]; co-culture with Compound A or Compound C,competes with Compound A and Compound C for CRBN
